This passage reports IC50 results from patent US9765074B2, “Inhibitors of the renal outer medullary potassium channel” (Merck Sharp & Dohme Corp., priority 2013, dated 2017).

Usually IC50 stands for the midpoint of a concentration-inhibition curve. Read a high IC50 as a need for much substance.

Molecules are shown by their SMILES.

For the assay, the target named is T1, hROMK (hKir1.1) (Homo sapiens, UniProt P48048).
T1 construct: expressed in transfected cells
T1 sequence (P48048 1-391): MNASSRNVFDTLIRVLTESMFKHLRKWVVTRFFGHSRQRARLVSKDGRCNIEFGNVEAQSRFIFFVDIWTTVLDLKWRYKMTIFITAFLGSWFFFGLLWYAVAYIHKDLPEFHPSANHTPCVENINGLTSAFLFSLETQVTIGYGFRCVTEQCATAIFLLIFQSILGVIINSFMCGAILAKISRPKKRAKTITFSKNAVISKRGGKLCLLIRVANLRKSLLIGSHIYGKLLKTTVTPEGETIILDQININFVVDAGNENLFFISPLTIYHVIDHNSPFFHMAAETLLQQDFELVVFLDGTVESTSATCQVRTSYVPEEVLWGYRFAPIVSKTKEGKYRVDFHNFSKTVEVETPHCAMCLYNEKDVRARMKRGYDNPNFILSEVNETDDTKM
Put plainly: Thallium Flux Assay (ROMK channel functional thallium flux, FLIPR-Tetra). The assay is classed as cell-based. The note with it: HEK293 cells stably expressing hROMK (hKir1.1); 30 min compound incubation. An outline of the steps:
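Thallium flux read by FluxOR fluorescence ([…]) for ~10 min after adding 3 mM Tl+/0.3 mM K+ final. Stable HEK-hKir1.1 cells were dye-loaded 90 min, exposed to compound 30 min at room temperature in ouabain/probenecid buffer; IC50 relative to a 3 μM control inhibitor.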
In turn, `CC1=C(N2C(=O)C3(CCN(C[C@@H](O)c4ccc(-n5cnnn5)nc4C)CC3)CC2C)COC1=O` (mixture of isomers) [Example 58, 8-{(2S)-2-hydroxy-2-[2-methyl-6-(1H-tetrazol-1-yl)pyridin-3-yl]ethyl}-3-methyl-2-(4-methyl-5-oxo-2,5-dihydrofuran-3-yl)-1-oxo-2-aza-8-azoniaspiro[4.5]decane] gave an IC50 of 60 nM. The same measure for `CC1=C(N2CCC3(CCN(C[C@H](O)c4ccc(-n5cnnn5)nc4C)CC3F)C2=O)COC1=O` (single isomer, unassigned) [Example 118]: 180 nM; for `O=C1C=C(N2CCC3(CCN(C[C@H](O)c4ccc(-n5cnnn5)cc4F)CC3)C2=O)CO1` [Example 13, 8-{(2R)-2-[2-fluoro-4-(1H-tetrazol-1-yl)phenyl]-2-hydroxyethyl}-1-oxo-2-(5-oxo-2,5-dihydrofuran-3-yl)-2-aza-8-azoniaspiro[4.5]decane]: 20 nM. The same measure for `CC1=C(N2CCC3(CCN(C[C@H](O)c4ccc(-n5cnnn5)nc4C)CC3)C2=O)COC1=O` [Example 20, 8-{(2R)-2-hydroxy-2-[2-methyl-6-(1H-tetrazol-1-yl)pyridin-3-yl]ethyl}-2-(4-methyl-5-oxo-2,5-dihydrofuran-3-yl)-1-oxo-2-aza-8-azoniaspiro[4.5]decane]: 30 nM; for `CC1=C(N2C(=O)C3(CCN(C[C@@H](O)c4ncc(-n5cnnn5)cc4C)CC3)CC2C)COC1=O` (single isomer, unassigned) [Example 138]: 80 nM. The same measure for `COC1CN(C2=CC(=O)OC2)C(=O)C12CCN(C[C@H](O)c1ccc(-n3cnnn3)nc1)CC2` (mixture of isomers) [Example 206, 8-((R)-2-(6-(1H-tetrazol-1-yl)pyridin-3-yl)-2-hydroxyethyl)-4-methoxy-2-(5-oxo-2,5-dihydrofuran-3-yl)-2,8-diazaspiro[4.5]decan-1-one]: 50 nM; for `CC1=C(N2CCC3(CC4COCC(C3)N4C[C@H](O)c3ccc(-n4cnnn4)nc3)C2=O)COC1=O` (stereo partly drawn) [Example 180, 9-{(2R)-2-hydroxy-2-[6-(1H-tetrazol-1-yl)pyridin-3-yl]ethyl}-1′-(4-methyl-5-oxo-2,5-dihydrofuran-3-yl)-2′H-spiro[7-oxa-9-azabicyclo[3.3.1]nonane-3,3′-pyrrolidin]-2′-one]: 40 nM; for `CC1=C(N2CCC3(CCN(CCc4cnc(-n5cnnn5)cc4CO)CC3)C2=O)COC1=O` [Example 250, 8-{2-[4-(hydroxymethyl)-6-(1H-tetrazol-1-yl)pyridin-3-yl]ethyl}-2-(4-methyl-5-oxo-2,5-dihydrofuran-3-yl)-1-oxo-2-aza-8-azoniaspiro[4.5]decane]: 80 nM. The molecule `COC1CN(C[C@H](O)c2cnc(-n3cnnn3)cn2)CCC12CCN(C1=C(C)C(=O)OC1)C2=O` (single isomer, unassigned) [Example 178] had an IC50 of 790 nM. Against the preceding molecule, the IC50 is about 9.9-fold higher. As to `CC1=C(N2C(=O)C3(CCN(C[C@H](O)c4ccc(-n5cnnn5)nc4C)CC3)CC2C)COC1=O` (mixture of isomers) [Example 56, 8-{(2R)-2-hydroxy-2-[2-methyl-6-(1H-tetrazol-1-yl)pyridin-3-yl]ethyl}-3-methyl-2-(4-methyl-5-oxo-2,5-dihydrofuran-3-yl)-1-oxo-2-aza-8-azoniaspiro[4.5]decane], half-maximal inhibition (IC50) was put at 20 nM. In the case of `O=C1C=C(N2C(=O)C3(CCN(C[C@H](O)c4ccc(-n5cnnn5)nc4)CC3)CC2C2CC2)CO1` (mixture of isomers) [Example 214, 3-cyclopropyl-8-{(2R)-2-hydroxy-2-[6-(1H-tetrazol-1-yl)pyridin-3-yl]ethyl}-2-(5-oxo-2,5-dihydrofuran-3-yl)-2,8-diazaspiro[4.5]decan-1-one], it took 30 nM to reach half-maximal inhibition (IC50).

In turn, `CC1=C(N2CCC3(CCN(CCc4ccc(-n5cnnn5)nn4)CC3F)C2=O)COC1=O` (single isomer, unassigned) [Example 266, 6-fluoro-2-(4-methyl-5-oxo-2,5-dihydrofuran-3-yl)-8-{2-[6-(1H-tetrazol-1-yl)pyridazin-3-yl]ethyl}-2,8-diazaspiro[4.5]decan-1-one] gave a half-maximal inhibitory concentration (IC50) of 10 nM. The same measure for `C[C@@H]1CC2(CCN(C[C@@H](O)c3ccc(-n4cnnn4)nc3)CC2)C(=O)N1C1=CC(=O)OC1` [Example 84, (3R)-8-{(2S)-2-hydroxy-2-[6-(1H-tetrazol-1-yl)pyridin-3-yl]ethyl}-3-methyl-1-oxo-2-(5-oxo-2,5-dihydrofuran-3-yl)-2-aza-8-azoniaspiro[4.5]decane]: 10 nM; for `O=C1C=C(N2C=CC3(CCN(C[C@H](O)c4ccc(-n5cnnn5)nn4)CC3)C2=O)CO1` [Example 201, 8-{(2S)-2-hydroxy-2-[6-(1H-tetrazol-1-yl)pyridazin-3-yl]ethyl}-1-oxo-2-(5-oxo-2,5-dihydrofuran-3-yl)-2-aza-8-azoniaspiro[4.5]dec-3-ene]: 120 nM; for `COC1CN(C2=C(C)C(=O)OC2)C(=O)C12CC1CCC(C2)N1C[C@H](O)c1ccc(-n2cnnn2)nc1` (single isomer, unassigned) [Example 108]: 40 nM. The same measure for `CC1=C(N2CCC3(CCN(C[C@@H](O)c4ccc(-n5cnnn5)nc4)CC3)C2=O)COC1=O` [Example 19, 8-{(2S)-2-hydroxy-2-[6-(1H-tetrazol-1-yl)pyridin-3-yl]ethyl}-2-(4-methyl-5-oxo-2,5-dihydrofuran-3-yl)-1-oxo-2-aza-8-azoniaspiro[4.5]decane]: 30 nM. `CC1CC2(CC3CCC(C2)N3C[C@@H](O)c2ccc(-n3cnnn3)nc2)C(=O)N1C1=CC(=O)OC1` (single isomer, unassigned) [Example 103]: the IC50 amounted to 10 nM. The same measure for `CC1=C(N2CC(O)C3(CCN(C[C@H](O)c4ccc(-n5cnnn5)nc4)CC3)C2=O)COC1=O` (single isomer, unassigned) [Example 110]: 120 nM; for `O=C1C=C(N2C(=O)C3(CCN(C[C@H](O)c4cnc(-n5cnnn5)cn4)CC3)CC2CF)CO1` (single isomer, unassigned) [Example 205]: 30 nM; for `CC1=C(N2CCC3(CCN(C[C@H](O)c4cnc(-n5cnnn5)nc4)CC3)C2=O)COC1=O` [Example 17, 8-{(2R)-2-hydroxy-2-[2-(1H-tetrazol-1-yl)pyrimidin-5-yl]ethyl}-2-(4-methyl-5-oxo-2,5-dihydrofuran-3-yl)-1-oxo-2-aza-8-azoniaspiro[4.5]decane]: 30 nM. The same measure for `CC1=C(N2CCC3(CC4CCC(C3)N4C[C@H](O)c3ccc(-n4cnnn4)cn3)C2=O)COC1=O` (stereo partly drawn) [Example 47, (1R,5R)-8-{(2S)-2-hydroxy-2-[5-(1H-tetrazol-1-yl)pyridin-2-yl]ethyl}-1′-(4-methyl-5-oxo-2,5-dihydrofuran-3-yl)-2′-oxospiro[8-azoniabicyclo[3.2.1]octane-3,3′-pyrrolidine]]: 20 nM. `COC1CN(C2=C(C)C(=O)OC2)C(=O)C12CCN(C[C@H](O)c1ccc(-n3cnnn3)nc1)CC2` (single isomer, unassigned) [Example 115] registered an IC50 of 60 nM. The same measure for `CC1=C(N2CCC3(CCN(C(C)(C)C(O)c4ccc(-n5cnnn5)cn4)CC3)C2=O)COC1=O` (single isomer, unassigned) [Example 299]: 10 nM.
